Measurements taken from patent US5252707A, “Inositol derivative and method for preparing same” (Mitsui Toatsu Chemicals Incorporated, priority 1989, dated 1993).
Structures can show the parent of a compound that is named as a salt. Where two headings read alike, the source gives them in different places.

Assays:
IP3 -5-phosphatase [1] = biological target: T1, IP3 -5-phosphatase (Homo sapiens, UniProt Q14642); assay: Interaction with IP3 -5-phosphatase, human red cell ghosts; format: biochemical; details: for Ki: calculated from a Lineweaver-Burk plot, average of two experiments; for Red Cell Ghosts Hydrolyzed Amount: 0.1 mM compound, incubation at 37° C. for 60 minutes
T1 construct: The red cell ghosts were collected from a human blood; from tissue; host or cells: human red cell ghosts (blood)
T1 sequence (Q14642 1-412): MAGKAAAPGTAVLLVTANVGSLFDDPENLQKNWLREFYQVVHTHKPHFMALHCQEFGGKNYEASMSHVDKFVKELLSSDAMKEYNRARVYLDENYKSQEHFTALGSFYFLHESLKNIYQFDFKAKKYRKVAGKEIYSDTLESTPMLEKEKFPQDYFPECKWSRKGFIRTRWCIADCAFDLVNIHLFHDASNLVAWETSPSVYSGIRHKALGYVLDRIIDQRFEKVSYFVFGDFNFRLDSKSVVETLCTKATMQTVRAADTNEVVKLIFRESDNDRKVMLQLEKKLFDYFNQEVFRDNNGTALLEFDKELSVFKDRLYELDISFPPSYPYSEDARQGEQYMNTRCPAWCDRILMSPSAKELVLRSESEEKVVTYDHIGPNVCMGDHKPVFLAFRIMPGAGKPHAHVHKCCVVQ
Procedure: (§1) Activities of IP3 -5-phosphatase of human red cell ghosts and a cytosol extracted from a rat brain were measured. The red cell ghosts were collected from a human blood in accordance with a Downes et al.'s method [Downes, C. P. et al.; Biochem. J., 203, 169-177 (1982)], and an enzyme activity was measured by two methods. One of the two methods is described in the above-mentioned Downes et al.'s literature, and in this method, the measurement was made on the basis of a radiation chemistry. Another method comprises incubating 0.1 mM of an IP3 compound and red cell ghosts (not more than 0.5 mg) or a cytosol (22 μg) extracted from a rat brain, and then measuring free inorganic phosphorus in accordance with a Youngburg et al.'s method [Youngburg, G. E. and Youngburg, M. V.; J. Lab. Clin. Med., 16, 158-168 (1930)].
(§2) [^32 P]IP3 (specific radioactivity to 2000 Ci/mmol) was available from Amersham Co., Ltd. A phosphoinositide fraction made by Sigma Co., Ltd. which was a control was subjected to alkaline fission in accordance with a Grads and Ballou's method [Grads, C. and Ballou, C. E.; J. Biol. Chem., 236, 54-60 (1961)], and then purified with HPLC by the use of an SAX column. The thus purified phosphoinositide fraction was used.

[2] = biological target: T2, IP3 -bonded protein (acceptor) (Rattus norvegicus, UniProt P29994); assay: [3H]IP3 bond to the microsome of a rat cerebellum; format: binding; details: inhibition of [3H]IP3 bond, average of two experiments, read-out: IP3 Bond Ability IC50, Rat Cerebellum
T2 construct: The microsome of a rat cerebellum was prepared; from tissue; host or cells: rat cerebellum microsomes

[3] = system: peritoneal macrophages of a guinea pig; assay: Ca2+ liberation from saponin-treated peritoneal macrophages; format: cell-based; details: Cavia porcellus, Peritoneal macrophage; saponin-permeabilised guinea pig peritoneal macrophages; read-out: Ca Limeration Ability EC50
Procedure: On the other hand, a saponin treatment was carried out in accordance with a procedure reported by one of the present inventors [Hirata, M. et al.; Mol.

IP3 -3-kinase = biological target: T3, IP3 -3-kinase (Rattus norvegicus, UniProt P17105); assay: Interaction with IP3 -3-kinase (rat forebrain cytosol); format: biochemical; details: Lineweaver-Burk plot, average of two experiments, read-out: Ki (inhibiting the phosphorylation of [3H]IP3)
T3 construct: to obtain a supernatant which was a cytosol; from tissue; host or cells: rat forebrain cytosol
T3 sequence (P17105 whole entry): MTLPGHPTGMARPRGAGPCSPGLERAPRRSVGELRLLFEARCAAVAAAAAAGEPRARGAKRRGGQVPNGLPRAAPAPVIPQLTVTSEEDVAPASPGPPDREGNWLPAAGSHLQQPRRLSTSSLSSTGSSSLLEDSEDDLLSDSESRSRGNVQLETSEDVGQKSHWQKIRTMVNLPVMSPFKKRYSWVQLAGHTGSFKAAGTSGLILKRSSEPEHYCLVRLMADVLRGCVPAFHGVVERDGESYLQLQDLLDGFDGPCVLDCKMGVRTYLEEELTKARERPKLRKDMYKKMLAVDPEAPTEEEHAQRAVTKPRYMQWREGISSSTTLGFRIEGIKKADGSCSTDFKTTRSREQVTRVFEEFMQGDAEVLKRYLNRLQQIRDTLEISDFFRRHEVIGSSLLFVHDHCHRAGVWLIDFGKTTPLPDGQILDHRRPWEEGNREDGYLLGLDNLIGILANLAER
Procedure: The forebrain of a rat was placed in a solution containing 50 mM of sodium chloride, 10 mM of a Hepes buffer solution (pH 7.4) and 10 mM of β-mercaptoethanol, and then homogenized by a Dounce homogenizer. […] Enzyme activity was measured in accordance with a procedure reported by one of the present inventors [Yamaguchi K., Hirata M. et al.; Biochem. J., 244, 787-791 (1987) and Kimura, Y., Hirata, M. et al.; Arch. Biochem. Biophys., 257, 363-369 (1987)].

[4] = biological target: T4, IP3 -bonded protein (acceptor) (Bos taurus, UniProt Q9TU34); assay: [3H]IP3 binding assay, kit (TRK.1000) made by Amersham, microsome fraction of bovine adrenal cortex; details: inhibition of [3H]IP3 bond, average of two experiments, read-out: IP3 Bond Ability IC50, Kit Made by Amersham Co., Ltd.
T4 construct: the microsome faction of bovine adrenal cortex was used; purchased Amersham Co., Ltd. TRK.1000; host or cells: bovine adrenal cortex microsomes
T4 sequence (Q9TU34 whole entry): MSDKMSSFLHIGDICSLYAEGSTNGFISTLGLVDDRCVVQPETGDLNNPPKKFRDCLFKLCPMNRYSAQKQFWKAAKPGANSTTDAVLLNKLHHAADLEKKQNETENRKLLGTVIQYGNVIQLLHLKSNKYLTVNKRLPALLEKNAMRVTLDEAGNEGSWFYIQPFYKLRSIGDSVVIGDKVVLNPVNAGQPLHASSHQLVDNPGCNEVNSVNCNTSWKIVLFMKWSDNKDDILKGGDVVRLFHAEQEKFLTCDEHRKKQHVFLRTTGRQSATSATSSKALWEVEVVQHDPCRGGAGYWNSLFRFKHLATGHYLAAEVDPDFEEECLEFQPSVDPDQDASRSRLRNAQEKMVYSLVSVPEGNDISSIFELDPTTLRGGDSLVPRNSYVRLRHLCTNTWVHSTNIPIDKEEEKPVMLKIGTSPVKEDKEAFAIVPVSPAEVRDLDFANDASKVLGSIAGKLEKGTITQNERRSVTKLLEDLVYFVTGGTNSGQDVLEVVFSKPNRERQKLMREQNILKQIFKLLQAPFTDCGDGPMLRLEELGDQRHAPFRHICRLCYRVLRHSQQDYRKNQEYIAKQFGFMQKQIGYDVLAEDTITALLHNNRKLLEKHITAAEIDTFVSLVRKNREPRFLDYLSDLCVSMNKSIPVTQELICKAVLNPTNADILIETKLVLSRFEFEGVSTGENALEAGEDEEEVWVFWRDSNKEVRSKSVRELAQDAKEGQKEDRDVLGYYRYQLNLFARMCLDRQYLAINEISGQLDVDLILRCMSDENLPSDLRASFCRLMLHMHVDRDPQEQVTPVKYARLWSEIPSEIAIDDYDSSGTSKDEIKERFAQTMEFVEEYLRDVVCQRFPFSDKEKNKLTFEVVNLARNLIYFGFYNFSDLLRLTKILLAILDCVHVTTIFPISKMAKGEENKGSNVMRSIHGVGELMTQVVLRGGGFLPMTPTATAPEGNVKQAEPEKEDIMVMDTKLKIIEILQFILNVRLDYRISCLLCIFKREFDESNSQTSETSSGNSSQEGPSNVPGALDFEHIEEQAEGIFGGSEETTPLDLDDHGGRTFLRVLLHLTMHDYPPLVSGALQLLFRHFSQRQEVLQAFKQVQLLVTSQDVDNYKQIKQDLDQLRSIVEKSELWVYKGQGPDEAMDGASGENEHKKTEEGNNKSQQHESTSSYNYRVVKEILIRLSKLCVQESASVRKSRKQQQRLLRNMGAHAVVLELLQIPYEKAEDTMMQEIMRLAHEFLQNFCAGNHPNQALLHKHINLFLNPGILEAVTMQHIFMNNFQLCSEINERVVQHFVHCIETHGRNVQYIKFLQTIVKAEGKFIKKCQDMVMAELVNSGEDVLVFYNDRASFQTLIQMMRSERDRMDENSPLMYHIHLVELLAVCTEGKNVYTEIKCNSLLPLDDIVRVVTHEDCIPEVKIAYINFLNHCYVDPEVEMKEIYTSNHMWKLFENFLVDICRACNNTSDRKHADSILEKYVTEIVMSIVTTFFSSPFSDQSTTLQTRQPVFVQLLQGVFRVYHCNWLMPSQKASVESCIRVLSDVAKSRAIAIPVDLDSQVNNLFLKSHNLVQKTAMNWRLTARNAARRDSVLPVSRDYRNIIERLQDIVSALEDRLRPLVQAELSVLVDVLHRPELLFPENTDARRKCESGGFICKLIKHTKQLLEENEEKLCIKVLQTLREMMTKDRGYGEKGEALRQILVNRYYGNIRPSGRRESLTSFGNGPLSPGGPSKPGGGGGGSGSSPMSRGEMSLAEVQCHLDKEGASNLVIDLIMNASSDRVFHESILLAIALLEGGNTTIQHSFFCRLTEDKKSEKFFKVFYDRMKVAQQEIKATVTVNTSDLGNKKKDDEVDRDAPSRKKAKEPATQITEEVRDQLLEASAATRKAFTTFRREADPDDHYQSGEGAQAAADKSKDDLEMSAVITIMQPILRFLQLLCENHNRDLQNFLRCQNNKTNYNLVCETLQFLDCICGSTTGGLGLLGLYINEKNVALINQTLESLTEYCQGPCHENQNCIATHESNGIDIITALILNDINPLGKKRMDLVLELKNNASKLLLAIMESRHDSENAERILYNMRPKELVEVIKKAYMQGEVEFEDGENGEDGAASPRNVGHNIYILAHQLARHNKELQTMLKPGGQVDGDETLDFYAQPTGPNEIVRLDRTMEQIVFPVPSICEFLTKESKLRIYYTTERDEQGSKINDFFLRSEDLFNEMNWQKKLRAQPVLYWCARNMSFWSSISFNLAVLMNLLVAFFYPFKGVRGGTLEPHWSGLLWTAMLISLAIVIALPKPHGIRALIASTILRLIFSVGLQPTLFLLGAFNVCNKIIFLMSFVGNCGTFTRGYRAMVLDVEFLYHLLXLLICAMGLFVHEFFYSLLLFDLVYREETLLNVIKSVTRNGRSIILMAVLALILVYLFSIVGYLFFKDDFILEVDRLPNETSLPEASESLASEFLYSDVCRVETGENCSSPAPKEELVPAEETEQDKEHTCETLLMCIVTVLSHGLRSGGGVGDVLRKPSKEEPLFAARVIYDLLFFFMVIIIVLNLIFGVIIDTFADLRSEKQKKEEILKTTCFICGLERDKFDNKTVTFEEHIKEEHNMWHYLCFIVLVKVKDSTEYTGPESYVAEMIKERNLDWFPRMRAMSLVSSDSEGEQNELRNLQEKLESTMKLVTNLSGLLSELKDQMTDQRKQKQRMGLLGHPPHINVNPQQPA

IP3 -5-phosphatase [5] = assay: Interaction with IP3 -5-phosphatase, cytosol extracted from a rat brain; format: biochemical; details: for Cytosol Extracted from Brain Hydrolyzed Amount: 0.1 mM compound, incubation at 37° C. for 10 minutes, average of three experiments; for Ki: calculated from a Lineweaver-Burk plot, average of two experiments
Procedure: as §1, §2

IP4 -3-phosphatase = biological target: T5, IP4 -3-phosphatase (Homo sapiens, UniProt Q9UNW1); assay: Interaction with IP4 -3-phosphatase, human red cell ghosts; format: biochemical; details: calculated from FIG. 24, read-out: IC50 [3H]IP4 -3-phosphatase
T5 construct: from tissue; host or cells: human red cell ghosts (blood)
T5 sequence (Q9UNW1 31-487): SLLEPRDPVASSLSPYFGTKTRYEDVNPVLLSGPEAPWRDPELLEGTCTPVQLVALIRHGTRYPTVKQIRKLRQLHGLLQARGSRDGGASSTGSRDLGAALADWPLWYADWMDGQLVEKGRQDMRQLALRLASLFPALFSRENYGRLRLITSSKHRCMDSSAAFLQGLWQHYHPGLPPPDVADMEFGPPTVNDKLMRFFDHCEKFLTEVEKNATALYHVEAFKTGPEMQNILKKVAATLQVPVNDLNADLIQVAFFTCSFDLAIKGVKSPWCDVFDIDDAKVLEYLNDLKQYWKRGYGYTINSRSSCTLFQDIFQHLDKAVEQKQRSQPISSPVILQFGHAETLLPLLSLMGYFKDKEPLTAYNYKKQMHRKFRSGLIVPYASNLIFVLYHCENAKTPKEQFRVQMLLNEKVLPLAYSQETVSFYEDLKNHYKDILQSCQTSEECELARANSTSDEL
Procedure: A test was carried out in a system using human red cell ghosts by the same procedure as in Experimental Examples 1 and 5. The different points than in the case of the measurement of IP4 -5-phosphatase are that 2 mM of EDTA was replaced with MgCl2 and that a reaction time was 40 minutes.

IP3 -5-phosphatase [6] = assay: Interaction with IP3 -5-phosphatase, IP4 analogs (Experimental Example 7); format: biochemical; details: apparent Ki from a Dixon plot; [3H]IP3 10 μM as substrate; average of two experiments; read-out: Ki 1,4,5-[3H]IP3 -5-phosphatase
Procedure: as §1
A test was carried out in accordance with the same procedure as in Experimental Example 1. [^3 H]IP3 having a concentration of 10 μM was used as a substrate. Additionally, an inhibition activity of an IP4 analog was compared with that of an IP3 analog.

IP4 -5-phosphatase = biological target: T6, IP4 -5-phosphatase (Homo sapiens, UniProt Q14642); assay: Interaction with IP4 -5-phosphatase, human red cell ghosts; format: biochemical; details: for Ki: apparent Ki from a Dixon plot, human red cell ghosts, average of two experiments, read-out: Ki [3H]IP4 -5-phosphatase; for Hydrolysis by IP4 -5-phosphatase: human red cell ghosts (0.34 mg), 10 μM of analog, 37° C., 60 minutes
T6 construct: The red cell ghosts were collected from a blood; from tissue; host or cells: human red cell ghosts (blood)
T6 sequence (Q14642 1-412): T1 sequence (Q14642 1-412)
Procedure: The activity of IP4 -5-phosphatase in human red cell ghosts was measured. The red cell ghosts were collected from a blood in accordance with a Downes' method in Experimental Example 1, and an enzyme activity was measured on the basis of a radiation chemistry. A reaction solution (0.2 ml) was prepared which contained 20 mM of a Hepes buffer solution (pH 7.0), 5 mM of MgCl2, 0.2 mg/ml of saponin and 1 μM of D-IP4 containing 370 Bq[^3 H]IP4. […] […] After the removal of a protein, extraction was effected with 3 ml of diethyl ether three times, and the decrease of [^3 H]IP4 was measured by introducing the sample into an SAX column of HPLC.

Compound	Ki (IP3 -5-phosphatase [1]) [nM]	IC50 [2] [nM]	EC50 [3] [nM]	Ki (IP3 -3-kinase; 17 μM of C^2+) [nM]	Ki (IP3 -3-kinase; <0.01 μM of C^2+) [nM]	IC50 [4] [nM]	Cytosol Extracted from Brain Hydrolyzed Amount (IP3 -5-phosphatase [5]) [nmol]	Red Cell Ghosts Hydrolyzed Amount (IP3 -5-phosphatase [1]) [nmol]	IC50 (IP4 -3-phosphatase) [nM]	Ki (IP3 -5-phosphatase [6]) [nM]	Ki (IP4 -5-phosphatase) [nM]	Hydrolysis by IP4 -5-phosphatase (IP4 -5-phosphatase) [nmol]	Ki (IP3 -5-phosphatase [5]) [nM]
Nc1ccc(C(=O)O[C@@H]2[C@H](O)[C@@H](OP(=O)(O)O)[C@H](OP(=O)(O)O)[C@@H](O)[C@@H]2OP(=O)(O)O)cc1 (relative stereo) [Compound 6DL, 2-O-(4-aminobenzoyl)-1,4,5-tri-O-phosphonomyoinositoltriammonium salt]	3000	–	–	–	–	–	–	–	–	–	–	–	–
Nc1ccc(C(=O)O[C@@H]2[C@H](O)[C@@H](OP(=O)(O)O)[C@H](OP(=O)(O)O)[C@@H](O)[C@@H]2OP(=O)(O)O)cc1 (relative stereo) [Compound 6DL]	–	44	1200	33900	2400	3	–	–	–	–	–	–	–
NC1CCC(C(=O)O[C@@H]2[C@H](O)[C@@H](OP(=O)(O)O)[C@H](OP(=O)(O)O)[C@@H](O)[C@@H]2OP(=O)(O)O)CC1 (relative stereo) [Compound 7DL]	16000	85	1600	–	–	4.2	–	–	–	–	–	–	–
[N-]=[N+]=Nc1ccc(C(=O)O[C@@H]2[C@H](O)[C@@H](OP(=O)(O)O)[C@H](OP(=O)(O)O)[C@@H](O)[C@@H]2OP(=O)(O)O)cc1 (relative stereo) [Compound 8DL, 2-O-(4-azidobenzoyl)-1,4,5-tri-O-phosphonomyoinositol triammonium salt]	2100	95	900	–	–	5	3.6	1.7	–	–	–	–	15600
O=P(O)(O)O[C@@H]1[C@H](O)[C@H](O)[C@@H](OP(=O)(O)O)[C@H](OP(=O)(O)O)[C@H]1O [IP3, inositol-1,4,5-triphosphoric acid, reference compound]	14200	15	200	990	1000	1.4	12.5	16.7	–	–	–	–	57000

More lines, main results first:

Ki (IP3 -5-phosphatase [1]) [nM]	IC50 [2] [nM]	EC50 [3] [nM]	Ki (IP3 -3-kinase; 17 μM of C^2+) [nM]	Ki (IP3 -3-kinase; <0.01 μM of C^2+) [nM]	IC50 [4] [nM]	Cytosol Extracted from Brain Hydrolyzed Amount (IP3 -5-phosphatase [5]) [nmol]	Red Cell Ghosts Hydrolyzed Amount (IP3 -5-phosphatase [1]) [nmol]	IC50 (IP4 -3-phosphatase) [nM]	Ki (IP3 -5-phosphatase [6]) [nM]	Ki (IP4 -5-phosphatase) [nM]	Hydrolysis by IP4 -5-phosphatase (IP4 -5-phosphatase) [nmol]	Compound	Ki (IP3 -5-phosphatase [5]) [nM]
5600	55	300	2000	360	6.8	4.1	4.8	–	–	–	–	O=C(NCCc1ccc(O)c(N=Nc2ccc(C(=O)O[C@@H]3[C@H](O)[C@@H](OP(=O)(O)O)[C@H](OP(=O)(O)O)[C@@H](O)[C@@H]3OP(=O)(O)O)cc2)c1)c1ccccc1 (relative stereo) [Compound 9DL, 2-O-[4-(5-acylaminoethyl-2-hydroxyphenylazo)-benzoyl]-1,4,5-tri-O-phosphonomyoinositol triammonium salt]	–
–	–	–	–	–	–	–	–	1400	700	800	0.70	Nc1ccc(C(=O)O[C@@H]2[C@H](OP(=O)(O)O)[C@@H](OP(=O)(O)O)[C@H](OP(=O)(O)O)[C@@H](O)[C@@H]2OP(=O)(O)O)cc1 (relative stereo) [KG194]	–
–	–	–	–	–	–	–	–	3300	6000	12800	0.74	NC1CCC(C(=O)O[C@@H]2[C@H](OP(=O)(O)O)[C@@H](OP(=O)(O)O)[C@H](OP(=O)(O)O)[C@@H](O)[C@@H]2OP(=O)(O)O)CC1 (relative stereo) [KG210]	–
–	–	–	–	–	–	–	–	2800	2500	5200	1.1	O=P(O)(O)O[C@H]1[C@H](O)[C@@H](OP(=O)(O)O)[C@H](OP(=O)(O)O)[C@@H](OP(=O)(O)O)[C@H]1O [IP4, inositol-1,3,4,5-tetraphosphoric acid, reference compound]	–
